In PubChem BioAssay AID248 (DTP/NCI, 2004):
Where “and” joins values, the source holds several entries; their conditions need not be identical. Equal entries are not always repeated. Toxic doses and inconclusive results are not listed. Rule as the data show it: active = T/C of 150% or more; inactive = T/C below 125%.

Test system: L1210 leukemia ip in BDF1 mice, survival T/C
Test: NCI In Vivo Anticancer Drug Screen. Data for tumor model L1210 Leukemia (intraperitoneal) in B6D2F1 (BDF1) mice
Details: endpoint: mean survival time, higher = longer survival
How it was run: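 Antitumor effect is assessed in tumor-bearing animals. Survival in the compound arm is compared with a vehicle-dosed control arm and expressed as their quotient.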

[1] = dose: 100.0 mg/kg/injection, schedule: Q04DX003 (ip), vehicle: saline with Tween-80
[2] = dose: 100.0 mg/kg/injection, schedule: Q01DX001 (ip), vehicle: Klucel (hydroxypropylcellulose) (HPC)
[3] = dose: 100.0 mg/kg/injection, schedule: Q04DX003 (ip), vehicle: Klucel (hydroxypropylcellulose) (HPC)
[4] = dose: 100.0 mg/kg/injection, schedule: Q01DX009 (ip), vehicle: saline
[5] = dose: 50.0 mg/kg/injection, schedule: Q01DX001 (ip), vehicle: saline
[6] = dose: 50.0 mg/kg/injection, schedule: Q04DX003 (ip), vehicle: saline with Tween-80
[7] = dose: 100.0 mg/kg/injection, schedule: Q01DX001 (ip), vehicle: saline

Measured: T/C

OC(Cc1cc(CC(O)(C(F)(F)F)C(F)(F)F)n(-c2ccccc2)n1)(C(F)(F)F)C(F)(F)F
inactive: [1] 97 % of control | dose: 200.0 mg/kg/injection, schedule: Q04DX003 (ip), vehicle: saline with Tween-80 97 % of control | dose: 400.0 mg/kg/injection, schedule: Q04DX003 (ip), vehicle: saline with Tween-80 95 % of control

CC(=O)Nc1ccc(CCc2nc(N)nc(Cl)c2-c2ccc(Cl)cc2)cc1
inactive: dose: 75.0 mg/kg/injection, schedule: Q01DX001 (ip), vehicle: saline 92 % of control | dose: 150.0 mg/kg/injection, schedule: Q01DX001 (ip), vehicle: saline 87 % of control | dose: 300.0 mg/kg/injection, schedule: Q01DX001 (ip), vehicle: saline 90 % of control

COC1=NS(=O)(=O)C2CCCCCCC2O1 (centres undefined)
inactive: dose: 25.0 mg/kg/injection, schedule: Q01DX001 (ip), vehicle: Klucel (hydroxypropylcellulose) (HPC) 102 % of control | dose: 25.0 mg/kg/injection, schedule: Q04DX003 (ip), vehicle: Klucel (hydroxypropylcellulose) (HPC) 92 % of control | dose: 50.0 mg/kg/injection, schedule: Q01DX001 (ip), vehicle: Klucel (hydroxypropylcellulose) (HPC) 94 % of control | dose: 50.0 mg/kg/injection, schedule: Q04DX003 (ip), vehicle: Klucel (hydroxypropylcellulose) (HPC) 95 % of control | [2] 94 % of control | [3] 95 % of control

O=S(=O)(O)n1nc2ccccc2c1-c1ccccc1
inactive: dose: 100.0 mg/kg/injection, schedule: Q04DX002 (ip), vehicle: saline with Tween-80 96 % of control | dose: 200.0 mg/kg/injection, schedule: Q04DX002 (ip), vehicle: saline with Tween-80 96 % of control

CCCCCC(/C=N/N=C(N)N)=N\N=C(N)N
inactive: dose: 15.0 mg/kg/injection, schedule: Q01DX Z (ip), vehicle: carboxymethylcellulose (CMC) 98 % of control | dose: 30.0 mg/kg/injection, schedule: Q01DX Z (ip), vehicle: carboxymethylcellulose (CMC) 97 % of control | dose: 30.0 mg/kg/injection, schedule: Q01DX Z (oral), vehicle: carboxymethylcellulose (CMC) 98 % of control | dose: 60.0 mg/kg/injection, schedule: Q01DX Z (ip), vehicle: carboxymethylcellulose (CMC) 95 % of control | dose: 60.0 mg/kg/injection, schedule: Q01DX Z (oral), vehicle: carboxymethylcellulose (CMC) 87 % of control | dose: 120.0 mg/kg/injection, schedule: Q01DX Z (oral), vehicle: carboxymethylcellulose (CMC) 91 % of control | dose: 240.0 mg/kg/injection, schedule: Q01DX Z (oral), vehicle: carboxymethylcellulose (CMC) 95 % of control

Nc1c(Cl)ncnc1Nc1ccc([N+](=O)[O-])cc1
inactive: [2] 89 % of control | dose: 200.0 mg/kg/injection, schedule: Q01DX001 (ip), vehicle: Klucel (hydroxypropylcellulose) (HPC) 94 % of control | dose: 400.0 mg/kg/injection, schedule: Q01DX001 (ip), vehicle: Klucel (hydroxypropylcellulose) (HPC) 92 % of control

CC(=O)Nc1onc(C)c1[N+](=O)[O-]
inactive: [4] 101 % of control | dose: 100.0 mg/kg/injection, schedule: Q04DX003 (ip), vehicle: other 91 % of control | dose: 200.0 mg/kg/injection, schedule: Q01DX009 (ip), vehicle: saline 98 % of control and 91 % of control | dose: 200.0 mg/kg/injection, schedule: Q04DX003 (ip), vehicle: other 92 % of control | dose: 400.0 mg/kg/injection, schedule: Q01DX009 (ip), vehicle: saline 94 % of control and 86 % of control | dose: 400.0 mg/kg/injection, schedule: Q04DX003 (ip), vehicle: other 94 % of control

NNC(=O)c1ccccc1
inactive: dose: 12.5 mg/kg/injection, schedule: Q01DX009 (ip), vehicle: saline 100 % of control | dose: 25.0 mg/kg/injection, schedule: Q01DX009 (ip), vehicle: saline 97 % of control | [5] 90 % of control | dose: 50.0 mg/kg/injection, schedule: Q01DX009 (ip), vehicle: saline 111 % of control | [6] 97 % of control | [7] 108 % of control | [4] 100 % of control

CN(C)c1nc2ccccc2o1
inactive: dose: 100.0 mg/kg/injection, schedule: Q01DX001 (ip), vehicle: carboxymethylcellulose (CMC) 94 % of control | dose: 200.0 mg/kg/injection, schedule: Q01DX001 (ip), vehicle: carboxymethylcellulose (CMC) 102 % of control | dose: 400.0 mg/kg/injection, schedule: Q01DX001 (ip), vehicle: carboxymethylcellulose (CMC) 105 % of control

O=C(CC[n+]1ccccc1)NCCCCCCNC(=O)CC[n+]1ccccc1
inactive: dose: 5.0 mg/kg/injection, schedule: Q01DX001 (ip), vehicle: saline 107 % of control

O=C(O)Cc1cc([N+](=O)[O-])c(O)c([N+](=O)[O-])c1
inactive: dose: 100.0 mg/kg/injection, schedule: Q01DX009 (ip), vehicle: saline sonified 101 % of control | [3] 95 % of control | dose: 200.0 mg/kg/injection, schedule: Q01DX009 (ip), vehicle: saline sonified 102 % of control | dose: 200.0 mg/kg/injection, schedule: Q04DX003 (ip), vehicle: Klucel (hydroxypropylcellulose) (HPC) 88 % of control | dose: 400.0 mg/kg/injection, schedule: Q01DX009 (ip), vehicle: saline sonified 102 % of control | dose: 400.0 mg/kg/injection, schedule: Q04DX003 (ip), vehicle: Klucel (hydroxypropylcellulose) (HPC) 93 % of control

O=c1[nH]cc(Cc2ccc(O)cc2)c(=O)[nH]1
inactive: dose: 50.0 mg/kg/injection, schedule: Q01DX005 (ip), vehicle: saline with Tween-80 106 % of control | dose: 100.0 mg/kg/injection, schedule: Q01DX005 (ip), vehicle: saline with Tween-80 101 % of control | dose: 200.0 mg/kg/injection, schedule: Q01DX005 (ip), vehicle: saline with Tween-80 98 % of control | dose: 400.0 mg/kg/injection, schedule: Q01DX005 (ip), vehicle: saline with Tween-80 109 % of control

CC(C)(C)OB(OC(C)(C)C)OC(C)(C)C
inactive: dose: 25.0 mg/kg/injection, schedule: Q01DX009 (ip), vehicle: other 105 % of control | dose: 50.0 mg/kg/injection, schedule: Q01DX009 (ip), vehicle: other 98 % of control | dose: 100.0 mg/kg/injection, schedule: Q01DX009 (ip), vehicle: other 109 % of control | dose: 100.0 mg/kg/injection, schedule: Q04DX003 (ip), vehicle: saline 98 % of control | dose: 200.0 mg/kg/injection, schedule: Q01DX009 (ip), vehicle: other 104 % of control | dose: 200.0 mg/kg/injection, schedule: Q04DX003 (ip), vehicle: saline 102 % of control | dose: 400.0 mg/kg/injection, schedule: Q04DX003 (ip), vehicle: saline 109 % of control

O=C(O)CS(=O)(=O)c1ccc(Cl)cc1
inactive: dose: 100.0 mg/kg/injection, schedule: Q01DX009 (ip), vehicle: saline with Tween-80 109 % of control | dose: 200.0 mg/kg/injection, schedule: Q01DX009 (ip), vehicle: saline with Tween-80 102 % of control | dose: 400.0 mg/kg/injection, schedule: Q01DX009 (ip), vehicle: saline with Tween-80 86 % of control

c1ccc(-c2nc3nnnn3nc2-c2ccccc2)cc1
inactive: [5] 100 % of control | [7] 103 % of control | dose: 200.0 mg/kg/injection, schedule: Q01DX001 (ip), vehicle: saline 98 % of control

O=C1OC(c2ccccc2)(C2(c3ccccc3)OC(=O)c3ccccc32)c2ccccc21 (centres undefined)
inactive: dose: 25.0 mg/kg/injection, schedule: Q04DX003 (ip), vehicle: saline with Tween-80 97 % of control | [6] 97 % of control | [1] 90 % of control

CC1(C(=O)O)CC12c1ccccc1-c1ccccc12 (centres undefined)
inactive: dose: 100.0 mg/kg/injection, schedule: Q01DX001 (ip), vehicle: acetone 103 % of control | dose: 200.0 mg/kg/injection, schedule: Q01DX001 (ip), vehicle: acetone 92 % of control
